How the values were obtained:
[1] = tested on: RPE-Neo or RPE-MYC or RPE-MYC expressing an EGFP-Histone 2B fusion protein; assay: Phenotypic screening assay (arrest in mitosis, change in DNA content, cell death; GE IN-Cell Analyzer 2000); assay type: cell-based; settings: Homo sapiens, compounds 20 nM to 20 μM, 24, 48 or 72 hours
[2] = tested on: RPE-Neo or RPE-MYC or RPE-MYC expressing an EGFP-Histone 2B fusion protein; assay: MTT assays of cellular proliferation; assay type: cell-based; settings: Homo sapiens, min. effective conc., read-out: Proliferative arrest (<50%)
[3] = read-out: Min. Effective conc. for Polyploidy (≥10%)
[4] = min. effective conc., read-out: Cell Death (>30%)
[5] = min. effective conc., read-out: Mitotic Arrest (≥10%)

SMILES	minimal effective concentration [1, 3] [µM]	minimal effective concentration [1, 4] [µM]	minimal effective concentration [1, 5] [µM]	minimal effective concentration [2] [µM]
CNC(=O)C1=C(O)c2ccccc2N(Cc2ccc(F)c(Cl)c2)C(=O)C1 [Example 116, 1-(3-chloro-4-fluorobenzyl)-5-hydroxy-N-methyl-2-oxo-2,3-dihydro-1H-benzo[b]azepine-4-carboxamide]	30 to 1000	30 to 1000	30 to 1000	30 to 1000
CNC(=O)C1=C(O)c2ccccc2N(Cc2cc(F)ccc2OC)C(=O)C1 [Example 114, 1-(5-fluoro-2-methoxybenzyl)-5-hydroxy-N-methyl-2-oxo-2,3-dihydro-1H-benzo[b]azepine-4-carboxamide]	1 to 10	1 to 10	1 to 10	1 to 10
CNC(=O)C1CC(=O)N(Cc2c(F)cccc2F)c2ccccc2C1=O (centres unmarked) [Example 108, 1-(2,6-difluorobenzyl)-5-hydroxy-N-methyl-2-oxo-2,3-dihydro-1H-benzo[b]azepine-4-carboxamide]	30 to 1000	30 to 1000	30 to 1000	30 to 1000
CNC(=O)C1=C(O)c2ccccc2N(Cc2ccc(OC)cc2)C(=O)C1 [Example 91, 5-hydroxy-1-(4-methoxybenzyl)-N-methyl-2-oxo-2,3-dihydro-1H-benzo[b]azepine-4-carboxamide]	10 to 30	10 to 30	1 to 10	10 to 30
CNC(=O)C1=C(O)c2ccccc2N(Cc2cccc(F)c2)C(=O)C1 [Example 77, 1-(3-fluorobenzyl)-5-hydroxy-N-methyl-2-oxo-2,3-dihydro-1H-benzo[b]azepine-4-carboxamide]	30 to 1000	30 to 1000	30 to 1000	30 to 1000
CNC(=O)C1=C(O)c2ccccc2N(c2ccc(OC)c(F)c2)C(=O)C1 [Example 95, 1-(3-fluoro-4-methoxyphenyl)-5-hydroxy-N-methyl-2-oxo-2,3-dihydro-1H-benzo[b]azepine-4-carboxamide]	10 to 30	10 to 30	1 to 10	10 to 30
CNC(=O)C1=C(O)c2ccc(C#N)cc2N(Cc2ccc(C)c(F)c2)C(=O)C1 [Example 139]	1 to 10	1 to 10	1 to 10	1 to 10
CNC(=O)C1CC(=O)N(Cc2ccc(C)cc2C)c2ccccc2C1=O (centres unmarked) [Example 101, 1-(2,4-dimethylbenzyl)-5-hydroxy-N-methyl-2-oxo-2,3-dihydro-1H-benzo[b]azepine-4-carboxamide]	1 to 10	1 to 10	1 to 10	1 to 10
CNC(=O)C1=C(O)c2ccccc2N(Cc2ccc(C)cc2)C(=O)C1 [Example 79, 5-hydroxy-N-methyl-1-(4-methylbenzyl)-2-oxo-2,3-dihydro-1H-benzo[b]azepine-4-carboxamide]	1 to 10	1 to 10	1 to 10	1 to 10
CNC(=O)C1=C(O)c2ccccc2N(Cc2ccc(F)c(OC)c2)C(=O)C1 [Example 112, 1-(4-fluoro-3-methoxybenzyl)-5-hydroxy-N-methyl-2-oxo-2,3-dihydro-1H-benzo[b]azepine-4-carboxamide]	1 to 10	1 to 10	1 to 10	1 to 10
CNC(=O)C1=C(O)c2ccccc2N(Cc2cccc(C)c2C)C(=O)C1 [Example 98, 1-(2,3-dimethylbenzyl)-5-hydroxy-N-methyl-2-oxo-2,3-dihydro-1H-benzo[b]azepine-4-carboxamide]	10 to 30	30 to 1000	10 to 30	30 to 1000
CNC(=O)C1=C(O)c2cc(OC)ccc2N(Cc2ccc(C)c(F)c2)C(=O)C1 [Example 137, 1-(3-fluoro-4-methylbenzyl)-5-hydroxy-7-methoxy-N-methyl-2-oxo-2,3-dihydro-1H-benzo[b]azepine-4-carboxamide]	1 to 10	1 to 10	1 to 10	1 to 10
CNC(=O)C1=C(O)c2ccccc2N(Cc2ccccc2F)C(=O)C1 [Example 78, 1-(2-fluorobenzyl)-5-hydroxy-N-methyl-2-oxo-2,3-dihydro-1H-benzo[b]azepine-4-carboxamide]	10 to 30	10 to 30	10 to 30	10 to 30
CCOc1ccc2c(c1)N(Cc1ccc(C)c(F)c1)C(=O)CC(C(=O)NC)=C2O [Example 128, 8-ethoxy-1-(3-fluoro-4-methylbenzyl)-5-hydroxy-N-methyl-2-oxo-2,3-dihydro-1H-benzo[b]azepine-4-carboxamide]	1 to 10	1 to 10	1 to 10	1 to 10
CNC(=O)C1=C(O)c2ccccc2N(Cc2ccc(OC)c(C(F)(F)F)c2)C(=O)C1 [Example 123, 5-hydroxy-1-(4-methoxy-3-(trifluoromethyl)benzyl)-N-methyl-2-oxo-2,3-dihydro-1H-benzo[b]azepine-4-carboxamide]	30 to 1000	30 to 1000	30 to 1000	30 to 1000
CNC(=O)C1=C(O)c2ccccc2N(Cc2cccc(OC)c2F)C(=O)C1 [Example 113, 1-(2-fluoro-3-methoxybenzyl)-5-hydroxy-N-methyl-2-oxo-2,3-dihydro-1H-benzo[b]azepine-4-carboxamide]	10 to 30	10 to 30	10 to 30	10 to 30
CNC(=O)C1=C(O)c2ccccc2N(Cc2cc(F)c(F)c(F)c2)C(=O)C1 [Example 105, 5-hydroxy-N-methyl-2-oxo-1-(3,4,5-trifluorobenzyl)-2,3-dihydro-1H-benzo[b]azepine-4-carboxamide]	30 to 1000	30 to 1000	30 to 1000	30 to 1000
CNC(=O)C1=C(O)c2ccccc2N(Cc2ccc(C#N)cc2)C(=O)C1 [Example 85, 1-(4-cyanobenzyl)-5-hydroxy-N-methyl-2-oxo-2,3-dihydro-1H-benzo[b]azepine-4-carboxamide]	30 to 1000	30 to 1000	30 to 1000	30 to 1000
CNC(=O)C1=C(O)c2ccccc2N(Cc2cccc(C)c2)C(=O)C1 [Example 80, 5-hydroxy-N-methyl-1-(3-methylbenzyl)-2-oxo-2,3-dihydro-1H-benzo[b]azepine-4-carboxamide]	1 to 10	1 to 10	1 to 10	1 to 10
CNC(=O)C1CC(=O)N(Cc2ccc(-c3ccccc3)cc2)c2ccccc2C1=O (centres unmarked) [Example 89, 1-([1,1′-biphenyl]-4-ylmethyl)-5-hydroxy-N-methyl-2-oxo-2,3-dihydro-1H-benzo[b]azepine-4-carboxamide]	30 to 1000	30 to 1000	30 to 1000	30 to 1000
CNC(=O)C1=C(O)c2ccccc2N(Cc2cc(C)c(F)c(C)c2)C(=O)C1 [Example 121, 1-(4-fluoro-3,5-dimethylbenzyl)-5-hydroxy-N-methyl-2-oxo-2,3-dihydro-1H-benzo[b]azepine-4-carboxamide]	10 to 30	10 to 30	10 to 30	10 to 30
CCCCc1ccc(CN2C(=O)CC(C(=O)NC)=C(O)c3ccccc32)cc1 [Example 88]	30 to 1000	30 to 1000	30 to 1000	30 to 1000
CNC(=O)C1=C(O)c2ccccc2N(Cc2ccc(F)cc2)C(=O)C1 [Example 76, 1-(4-fluorobenzyl)-5-hydroxy-N-methyl-2-oxo-2,3-dihydro-1H-benzo[b]azepine-4-carboxamide]	1 to 10	1 to 10	1 to 10	1 to 10
CNC(=O)C1=C(O)c2ccccc2N(Cc2ccc(Br)c(F)c2)C(=O)C1 [Example 125, 1-(4-bromo-3-fluorobenzyl)-5-hydroxy-N-methyl-2-oxo-2,3-dihydro-1H-benzo[b]azepine-4-carboxamide]	1 to 10	1 to 10	1 to 10	1 to 10
CNC(=O)C1=C(O)c2ccccc2N(Cc2ccc(OC)c(F)c2)C(=O)C1 [Example 111, 1-(3-fluoro-4-methoxybenzyl)-5-hydroxy-N-methyl-2-oxo-2,3-dihydro-1H-benzo[b]azepine-4-carboxamide]	1 to 10	1 to 10	1 to 10	1 to 10
COC(=O)C1=C(O)c2ccccc2N(Cc2cccc3ccccc23)C(=O)C1 [Example 38, Methyl 5-hydroxy-1-(naphthalen-1-ylmethyl)-2-oxo-2,3-dihydro-1H-benzo[b]azepine-4-carboxylate]	30 to 1000	30 to 1000	30 to 1000	30 to 1000

Source: patent US20240270695A1, “COMPOUNDS, COMPOSITIONS AND METHODS OF TREATING DISORDERS” (Chengdu Anticancer Bioscience LTD, priority 2021, published 2024)
